Measured values taken from patent US20030130287A1, “Piperidine and piperazine derivatives which function as 5-ht2a receptor antagonists” (priority 2000, published 2003).
Where a name gives a salt, the structure may show the parent alone.

Legend:
5-HT2A receptors = biological target: T1, 5-HT2A receptors (Rattus norvegicus, UniProt P14842); experiment: [3H]ketanserine displacement at 5-HT2A receptors (Example A1); assay type: binding; settings: frontal rat cortex homogenate, 15 minutes at 37° C.
T1 construct: Frontal rat cortex is homogenized in ice-cold buffer; from tissue; host or cells: rat frontal cortex homogenate (membrane pellet)
Protocol: For the in-vitro detection of affinity to 5-HT2A receptors, the following test (Example A1), for example, can be used. The 5-HT2A receptors are exposed both to [^3H]ketanserine (a substance which is known for its affinity to the receptor) and also to the test compound. The decrease in the affinity of [^3H]ketanserine to the receptor is an indication of the affinity of the test substance to the 5-HT2A receptor. The detection is carried out analogously to the description by J. E. Leysen et al., Molecular Pharmacology, 1982, 21: 301-314, or as also described, for example, in EP 0320983.
Preparation of a Suspension of 5-HT2A Receptors:
Frontal rat cortex is homogenized in ice-cold buffer. The homogenate is centrifuged for 10 minutes at 4° C. and 50,000 X. The pellet is re-suspended in 2.5 ml of ice-cold tris buffer, made up to 10 ml with additional buffer and centrifuged as described. The pellet is then re-suspended in buffer and diluted to give a homogenate comprising 60 mg of material/ml. 0.1 ml of the suspension, 100 μl of a 5 nM solution of [^3H]ketanserine and 100 μl of a solution of the test compound (concentration in the range from 10^−5 to 10^−10 mol per litre) are introduced into the incubation tubes and made up to 1 ml with buffer. The tubes are incubated for 15 minutes at 37° C. After the incubation has been terminated by dipping the tubes into an ice bath, the cooled suspension is filtered through a glass filter under reduced pressure. The filters are washed 3× with 5 ml of cold buffer and then transferred into scintillation tubes. The filters are analysed by liquid scintillation spectrometry in 8 ml of Triton-X scintillator liquid.

T1 sequence (P14842 whole entry): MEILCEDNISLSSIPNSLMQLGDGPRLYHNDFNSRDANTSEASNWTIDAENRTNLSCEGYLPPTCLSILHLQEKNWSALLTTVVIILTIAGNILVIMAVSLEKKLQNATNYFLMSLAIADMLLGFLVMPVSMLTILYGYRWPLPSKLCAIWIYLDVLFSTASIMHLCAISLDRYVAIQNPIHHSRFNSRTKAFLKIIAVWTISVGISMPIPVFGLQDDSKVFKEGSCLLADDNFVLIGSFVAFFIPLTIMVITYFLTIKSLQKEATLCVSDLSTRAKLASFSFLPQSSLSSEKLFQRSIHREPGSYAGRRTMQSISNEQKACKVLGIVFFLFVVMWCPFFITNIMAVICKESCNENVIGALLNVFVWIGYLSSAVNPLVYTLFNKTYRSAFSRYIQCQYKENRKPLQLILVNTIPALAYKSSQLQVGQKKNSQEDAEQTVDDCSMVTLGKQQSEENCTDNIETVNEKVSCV

Fc1ccc(CCN2CCC(Sc3cccc(Cl)n3)CC2)cc1 (as salt: hydrochloride) [Example 2, 2-chloro-6-{1-[2-(4-fluorophenyl)ethyl]piperidin-4-ylsulfanyl}pyridine] showed a melting point of 237 to 240 °C.
With [O-][S+](c1cccc(Cl)n1)C1CCN(CCc2ccc(F)cc2)CC1 (stereo not shown) (as salt: hydrochloride) [Example 3, 2-chloro-6-{1-[2-(4-fluorophenyl)ethyl]piperidine-4-sulfinyl}pyridine] the melting point was 208 °C.
O=S(=O)(c1cccc2cccnc12)N1CCN(CCc2ccc(F)cc2)CC1 (as salt: hydrochloride) [compound 1, 4-(8-Quinolinesulfonyl)-1-[2-(4-fluorophenyl)ethyl]piperazine] showed a melting point of 141 °C.
O=S(=O)(c1cccc2cccnc12)N1CCN(CCc2ccc(F)cc2)CC1 [compound 1, 4-(8-Quinolinesulfonyl)-1-[2-(4-fluorophenyl)ethyl]piperazine] gave an IC50 (5-HT2A receptors) of 1.3 nM.
O=S(=O)(c1cccc2ccccc12)N1CCN(CCc2ccc(F)cc2)CC1 [compound 2, 4-(1-Naphthylsulfonyl)-1-[2-(4-fluorophenyl)ethyl]piperazine] showed an IC50 (5-HT2A receptors) of 8.1 nM.
For O=S(=O)(c1ccc(F)cc1)N1CCN(CCc2ccc(F)cc2)CC1 [compound 3, 4-(4-Fluorophenylsulfonyl)-1-[2-(4-fluorophenyl)ethyl]piperazine], the IC50 (5-HT2A receptors) was 25 nM.
With CC(=O)Nc1cccc2c(S(=O)(=O)N3CCN(CCc4ccc(F)cc4)CC3)cccc12 [compound 4, 4-(5-Acetamidonaphth-1-yl-sulfonyl)-1-[2-(4-fluorophenyl)ethyl]piperazine] the IC50 (5-HT2A receptors) was 7.4 nM.
O=S(=O)(c1cccc2nonc12)N1CCN(CCc2ccc(F)cc2)CC1 [compound 5, 4-(2,1,3-Benzoxadiazol-4-ylsulfonyl)-1-[2-(4-fluorophenyl)ethyl]piperazine] gave an IC50 (5-HT2A receptors) of 44 nM.
O=[N+]([O-])c1ccccc1S(=O)(=O)N1CCN(CCc2ccc(F)cc2)CC1 [compound 6, 4-(2-Nitrophenylsulfonyl)-1-[2-(4-fluorophenyl)ethyl]piperazine] gave an IC50 (5-HT2A receptors) of 9.2 nM.
With O=S(=O)(c1ccc2c(c1)CCN2)N1CCN(CCc2ccc(F)cc2)CC1 [compound 7, 4-(2,3-Dihydro-1H-indole-5-sulfonyl)-1-[2-(4-fluorophenyl)ethyl]piperazine] the IC50 (5-HT2A receptors) was 13 nM.
In the case of N#Cc1c[nH]c2ccc(S(=O)(=O)N3CCN(CCc4ccc(F)cc4)CC3)cc12 [compound 8, 4-(3-Cyano-1H-indole-5-sulfonyl)-1-[2-(4-fluorophenyl)ethyl]piperazine], the IC50 (5-HT2A receptors) is reported as 1.6 nM.
With O=S(=O)(c1ccc(F)cc1)C1CCN(CCc2ccc(F)cc2)CC1 [compound 9, 4-(4-Fluorophenylsulfonyl)-1-(2-(4-fluorophenyl)ethyl]piperidine] the IC50 (5-HT2A receptors) was 2.1 nM.
Compound O=S(=O)(c1cccc(Cl)n1)C1CCN(CCc2ccc(F)cc2)CC1 [compound 10, 2-Chloro-6-{1-[2-(4-fluorophenyl)ethyl]piperidin-4-sulfonyl}pyridine] has an IC50 (5-HT2A receptors) of 0.6 nM.
